Experimental data reported in patent publication US20090004166A1, “Carrier For Enternal Administration” (priority 2004, published 2009).

Test system: Sprague-Dawley rats
Conditions: oral gavage, 5 mg/kg, heat source ~45° C.
Protocol: The effect was measured by comparison of times taken for a rat to withdraw its paw in response to heat when medicated and unmedicated with morphine.
Animals: Nine conscious Sprague-Dawley rats weighing between 350-450 grams each Treatment groups: • 1. […] Morphine with TPm: morphine HCl (14%) in a carrier containing water (59%) and a tocopheryl phosphate mixture (27%) (TPm). The TPm contained mono-tocopheryl phosphate and di-tocopheryl phosphate.
Formulations 2 and 3 were diluted with water and the final morphine concentration was made up to 5 mg/ml. […] This liquid formulation was then delivered to the animals by oral gavage (tube into stomach).
The experiment used nine rats that were divided into three groups. […]
Analgesic testing was performed at 1, 2, 4 and 6 hours and at each time point withdrawal latency was measured three times on each rat (with at least five minutes rest if using the same paw).
A plantar analgesiometer designed for rapid and efficient screening of analgesia levels in small laboratory animals was used. The device applied a heat source (˜45° C. from an infrared light) to the animal's hindpaw and the time taken to withdraw the paw from the heat source was measured (paw withdrawal latency). […] The animal was placed on a hot plate, confined by a clear acrylic cage which surrounds the plate and paw withdrawal response was monitored. […]

SMILES: CN1CC[C@]23c4c5ccc(O)c4O[C@H]2[C@@H](O)C=C[C@H]3[C@H]1C5.O=S(=O)(O)O [morphine sulphate]
- paw withdrawal latency (analgesia): increase in latency
